Measured values reported in PMC7539012, “Hyperphosphorylated tau aggregation and cytotoxicity modulators screen identified prescription drugs linked to Alzheimer's disease and cognitive functions” (Scientific Reports, 2020).
Structures can show the parent of a compound that is named as a salt. Where two headings read alike, the source gives them in different places.

Legend:
1N4R p-tau = test system: T1, 1N4R p-tau; assay: p-tau aggregation modulator screen of 1280-compound library (ThS fluorescence net change over 16 h); type: biochemical; design: key to PTAI>3SD: *: PTAI>3SD
T1 construct: made in house; host or cells: E. coli (PIMAX system)

p-tau = target: T2, p-tau (Homo sapiens, UniProt P10636); assay: p-tau aggregation assay, dose response (ThS fluorescence, inducer-free); type: biochemical; details: for effect on p-tau aggregation (16-h net change of ThS fluorescence): 6.25-150 µM benzodiazepine
T2 construct: made in house; host or cells: E. coli (PIMAX system)
Protocol: Aggregation of 6-µM p-tau under the influence of 30 µM of each of the library compounds or a DMSO vehicle control was monitored in 384-well plates every 10 min for ThS fluorescence changes over 16 h. To assess the quality of the high-throughput p-tau aggregation reactions, we used the T0 and T16hr ThS fluorescence units of no-compound control reactions to calculate the Z′-factor and coefficient of variation (CV), two commonly used criteria for robustness of high-throughput screens (HTS)[62]. A Z′-factor greater than 0.5 and CV smaller than 10% indicate robustness. […] To identify compounds with significant p-tau aggregation modulation, the net change of ThS fluorescence was calculated from all reactions (see Supplemental Table 1 for complete listing).
Aggregation of 6 µM of p-tau was done in the presence of the indicated concentrations of either compound. […] P-tau aggregation reactions with the C291S C322S (C/S) mutant p-tau were done in the presence of the indicated amounts of either compound. Shown are net changes of ThS over 16 h.
Given the tremendous socioeconomical burdens of AD, measures that prevent or delay the onset of the devastating neurodegeneration of AD will be highly impactful. If hyperphosphorylated tau-inflicted neuronal damages are an underpinning for AD and other tauopathies, enhancers of p-tau aggregation (PTAEs) may be risk factors for neurodegeneration. […] Prednicarbate is a synthetic corticosteroid for dermatological use, and carmofur (1-hexylcarbamoyl-5-fluorouracil) is an anti-neoplastic pyrimidine analogue. […] BZDs are among the most widely prescribed medication, in particular to the elderly, for depression and insomnia[70],[71]. We hypothesized that certain BZDs acted as a PTAE to potentiate p-tau aggregation and cytotoxicity. […] We therefore randomly picked nine prescription BZDs for p-tau aggregation assessment (Fig. 6; see Supplemental Fig. 5 for chemical structures). To 6-µM p-tau aggregation reactions, increasing doses of each of these BZDs were added.
Prednicarbate, a synthetic steroid, served as a PTAE control (yellow bars).
The aggregation assays over the course of this project have been done with multi-plate readers from different sources.
A common mix of 6 µM p-tau, 20 mM Tris pH 7.4, 1 mM DTT, and 20 µM ThS was assembled and dispensed to 384-well low-volume plates (10 µl per well) using BioTek EL406 Washer, followed by the addition of 150 nl of the Prestwick Library compounds (final concentration of 30 µM per well) or DMSO in a Beckman Coulter Biomek FX^P workstation. Each plate was covered with an Optical Adhesive Film and incubated at 37 °C for about 10 min. ThS fluorescence was measured every 10 min at 440/490 nm for 16 h by Biotek Synergy Neo Plate Reader. […] The real-time kinetics of ThS signals were collected using Gen5 software.

K18 P301L = test system: K18 P301L; design: method as in earlier work; details: 15 µM K18 P301L, 40 µM heparin; ref Probe Report ML103, National Center for Biotechnology Information, 2010; read-out: AC50 for tau aggregation inhibition; cited from earlier work
SH-SY5Y cells = assay: cells
Protocol: (see below). […] PI is excluded by living cells, but diffuses into dead cells where it binds nucleic acid and emits fluorescence. FDA/PI differential staining thus provides a quantitative assessment of cellular viability. The blue curves in Fig. 4a,b depict the cellular viability after treatment with 0–0.8 µM of p-tau.
P-tau (without pre-aggregation) and compounds were added together to cells. Cell viability was quantified by FDA and PI differential staining 24 h later. […] Cellular viability was characterized as above and plotted against the compound concentration. Trend lines in panels (a)–(c) were obtained with the dose response curve fitting function of the software Origin (Origin Pro 8, OriginLab Corporation, Northampton, MA, USA). (d) Representative images of apoptotic cells after treatment of p-tau. SH-SY5Y cells were treated with 0.6 µM of p-tau for 12 h before harvesting for annexin V and PI staining. […] The percentage of apoptotic SH-SY5Y cells was quantified by annexin V and PI double staining of cells receiving 12 h of the indicated treatment under each column in the graph. Error bars are standard deviations; n = 3.
SH-SY5Y cells were treated with 0–0.6 µM of p-tau in conjunction with varying doses of nitrazepam, prazepam or devazepide. […] The red dotted lines indicate 50% viability. Curve fitting was done with the dose–response fitting function of the software Origin (version 8, OriginLab Inc.). The number in parentheses represents the concentration (in µM) of the indicated compound.
Cell viability assays were tested according to reference[60] with modifications. PTAIs were typically added to cells along with (Fig. 4) or after p-tau was added to cells (Fig. 5). For PTAEs, 10 × concentration of p-tau and the test compounds were assembled for pre-aggregation (without heparin or ThS) for 48 h before adding 10 µl to 100 µl of cells in 96-well plates. Twenty-four or 48 h after the addition of protein/compound, cells were trypsinized and transferred to microcentrifuge tubes, and pelleted at 1000 × g for 5 min at room temperature for FDA, PI, annexin V, and ThS staining. For PI/ThS double staining, cell pellets were resuspended in 20 mM Tris, pH7.4 buffer and incubated with 100 µM ThS for 5 min at room temperature. 5-µg/ml propidium iodide was then added to cell suspension for observation under a microscope.
Supplemental Figure 2. […] SH-SY5Y cells were treated with the indicated concentrations p-tau and compounds (in µM) for 20 hours before FDA/PI differential staining and microscopic quantification. […] 0.2 or 0.4 µM of p-tau and 30 µM of each compound were pre-incubated in aggregation reactions for 24 hours before the 20-hr cell treatment and cytotoxicity quantification. FDA and PI dual staining was performed to measure cellular viability. SH-SY5Y cells Compounds in panel (a) were added to cells along with p-tau without pre-incubation.

[1] = design: method as in PMID 29401722; details: cited from earlier work
[2] = test system: C291S C322S (C/S) and C291A C322A (C/A) mutant p-tau; assay: aggregation of C/S or C/A mutant p-tau (ThS net change); type: biochemical; details: increasing doses of compound
Protocol: Figure 3 R-(−)-apomorphine and raloxifene are p-tau aggregation inhibitors (PTAIs) that act independently of the redox state of p-tau. (a) and (b) P-tau aggregation inhibition dose response curves of R-(−)-apomorphine and raloxifene. Aggregation of 6 µM of p-tau was done in the presence of the indicated concentrations of either compound. (c) Both R-(−)-apomorphine and raloxifene act independently of the two cysteine residues of p-tau. P-tau aggregation reactions with the C291S C322S (C/S) mutant p-tau were done in the presence of the indicated amounts of either compound. Shown are net changes of ThS over 16 h.
Many “hits” from prior tau-based HTS were non-selective redox modulators, due most likely to the susceptibility of unmodified tau fibrils to the oxidation of two cysteine residues of tau, C291 and C322. Because p-tau aggregation was not affected by changing the two cysteine residues to alanine or serine, we suspected that R-(−)-apomorphine and raloxifene would act independently of these two cysteine. […] By itself, the C/S p-tau gained 130 units of ThS fluorescence over the course of the aggregation reaction (blue column). With increasing doses of either compound, the net gain of ThS fluorescence decreased progressively. […]

women = details: cited from earlier work
[3] = flag: p-tau aggregation inhibitor, ThS net change more than 3 SD from mean
[4] = library screen, ThS fluorescence net change over 16 h with p-tau
[5] = 50 or 200 µM compound, heparin-free
[6] = SH-SY5Y, p-tau pre-incubated with compound

T2 sequence (P10636 1-412 isoform P10636-7): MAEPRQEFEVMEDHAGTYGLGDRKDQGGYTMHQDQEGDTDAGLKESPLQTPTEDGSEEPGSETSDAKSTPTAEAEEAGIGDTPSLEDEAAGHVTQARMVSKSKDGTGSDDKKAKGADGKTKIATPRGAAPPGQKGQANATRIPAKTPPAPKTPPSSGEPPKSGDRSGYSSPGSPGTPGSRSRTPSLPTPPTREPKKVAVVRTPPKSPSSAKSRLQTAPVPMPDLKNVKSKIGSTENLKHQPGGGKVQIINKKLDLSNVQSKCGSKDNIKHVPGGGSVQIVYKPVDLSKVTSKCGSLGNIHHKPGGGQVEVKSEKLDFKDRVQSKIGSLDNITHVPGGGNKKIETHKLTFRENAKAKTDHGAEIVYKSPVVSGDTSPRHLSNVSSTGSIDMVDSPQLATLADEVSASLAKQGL

COC(=O)C1=C(C)NC(C)=C(C(=O)OC)C1c1ccccc1[N+](=O)[O-] [Nifedipine, nifedipine, reference compound]
PTAI>3SD (1N4R p-tau; [3]): * | ThS net change (1N4R p-tau; [4]): -97 | EC50 (p-tau; 6 µM p-tau, ThS fluorescence): 24.3 µM

CN1C(=O)C(O)N=C(c2ccccc2)c2cc(Cl)ccc21 (centres unmarked) [temazepam]
effect on p-tau aggregation (16-h net change of ThS fluorescence) (p-tau; 6 µM p-tau): enhanced p-tau aggregation in a dose-dependent manner

CCOC(=O)c1nn(-c2ccccc2)c(=O)c2c(N)scc12 [compound 1]
AC50 (K18 P301L): 3.3 ± 0.2 µM | effect on p-tau aggregation (p-tau; [5]): no effect on p-tau aggregation

O=C1CN=C(c2ccccc2)c2cc(Cl)ccc2N1CC1CC1 [prazepam]
effect on p-tau cytotoxicity (cell death curve, LD50) (SH-SY5Y cells; [6]): decreasing LD50 | effect on p-tau aggregation (16-h net change of ThS fluorescence) (p-tau; 6 µM p-tau): enhanced p-tau aggregation in a dose-dependent manner

O=C1Nc2ccc(Cl)cc2C(c2ccccc2)=NC1O (centres unmarked) [oxazepam]
effect on p-tau aggregation (16-h net change of ThS fluorescence) (p-tau; 6 µM p-tau): did not

O=C1CN=C(c2ccccc2)c2cc([N+](=O)[O-])ccc2N1 [nitrazepam]
effect on p-tau cytotoxicity (cell death curve, LD50) (SH-SY5Y cells; [6]): did not alter the cytotoxicity of p-tau at all | effect on p-tau aggregation (16-h net change of ThS fluorescence) (p-tau; 6 µM p-tau): did not

CN1C(=O)CN=C(c2ccccc2)c2cc(Cl)ccc21 [diazepam]
effect on p-tau aggregation (16-h net change of ThS fluorescence) (p-tau; 6 µM p-tau): enhanced p-tau aggregation in a dose-dependent manner

CN1C(=O)[C@@H](NC(=O)c2cc3ccccc3[nH]2)N=C(c2ccccc2)c2ccccc21 [devazepide]
effect on p-tau cytotoxicity (cell death curve, LD50) (SH-SY5Y cells): decreasing LD50 | effect on p-tau aggregation (16-h net change of ThS fluorescence) (p-tau; 6 µM p-tau): enhanced p-tau aggregation in a dose-dependent manner

CC(C)/N=c1\cc2n(-c3ccc(Cl)cc3)c3ccccc3nc-2cc1Nc1ccc(Cl)cc1 [Clofazimine, clofazimine, reference compound]
PTAI>3SD (1N4R p-tau; [3]): * | ThS net change (1N4R p-tau; [4]): -196 | p-tau cytotox (SH-SY5Y cells): No change | EC50 (p-tau; 6 µM p-tau, ThS fluorescence): 68 µM

NNc1nncc2ccccc12 [Hydralazine, hydralazine hydrochloride]
p-tau cytotox (SH-SY5Y cells): No change | EC50 (p-tau; 6 µM p-tau, ThS fluorescence): 21.8 µM

O=C1CN=C(c2ccccc2)c2cc(Cl)ccc2N1 [nordiazepam]
effect on p-tau aggregation (16-h net change of ThS fluorescence) (p-tau; 6 µM p-tau): did not

CN1C(=O)CN=C(c2ccccc2)c2cc([N+](=O)[O-])ccc21 [nimetazepam]
effect on p-tau aggregation (16-h net change of ThS fluorescence) (p-tau; 6 µM p-tau): did not

COC1=C(OC)C(=O)C(CCCCCCCCCCO)=C(C)C1=O [Idebenone, idebenone]
PTAI>3SD (1N4R p-tau; [3]): * | ThS net change (1N4R p-tau; [4]): -1 | EC50 (p-tau; 6 µM p-tau, ThS fluorescence): 10.5 µM | bioavailability [1]: very low bioavailability

CCN(CC)CCN1C(=O)CN=C(c2ccccc2F)c2cc(Cl)ccc21 [flurazepam]
effect on p-tau aggregation (16-h net change of ThS fluorescence) (p-tau; 6 µM p-tau): enhanced p-tau aggregation in a dose-dependent manner

Nc1scc2c(C(=O)O)nn(-c3ccccc3)c(=O)c12 [compound 2]
AC50 (K18 P301L): 6.8 ± 0.4 µM | p-tau aggregation reduced to (p-tau; 400 µM compound): 57% | p-tau aggregation reduced to (p-tau; 1 mM compound): 46% | effect on p-tau aggregation (p-tau; [5]): moderate inhibition

O=C(c1ccc(OCCN2CCCCC2)cc1)c1c(-c2ccc(O)cc2)sc2cc(O)ccc12 [Raloxifene, raloxifene hydrochloride]
EC50 (SH-SY5Y cells; Homo sapiens, SH-SY5Y, read-out: EC50, concentration of compound to reduce p-tau cytotoxicity by 50%, SH-SY5Y, 0.8 µM p-tau): 4.8 µM | EC50 (p-tau; 6 µM p-tau, ThS fluorescence): 31.2 µM | effect on p-tau aggregation (p-tau; 50 µM compound): completely blocked p-tau aggregation | aggregation of C/A or C/S mutant p-tau [2]: effectively inhibited | risk of mild cognitive impairment (MCI) (women; 3-year trial, 5386 participants, 120 mg daily): reduced risks of mild cognitive impairment (MCI) | benefit for AD treatment (women; 12-month trial, 42 women with late-onset AD of mild to moderate severity): no significant benefits

Oc1c(Cl)cc(Cl)c(Cl)c1Cc1c(O)c(Cl)cc(Cl)c1Cl [Hexachlorophene, hexachlorophene]
PTAI>3SD (1N4R p-tau): * | ThS net change (1N4R p-tau): 74 | EC50 (p-tau): 17.8 µM

CCC(C)n1ncn(-c2ccc(N3CCN(c4ccc(OCC5COC(Cn6cncn6)(c6ccc(Cl)cc6Cl)O5)cc4)CC3)cc2)c1=O (centres unmarked) [Itraconazole, itraconazole, reference compound]
PTAI>3SD (1N4R p-tau; [3]): * | ThS net change (1N4R p-tau; [4]): -31 | p-tau cytotox (SH-SY5Y cells): No change | EC50 (p-tau; 6 µM p-tau, ThS fluorescence): 10.6 µM

COC(=O)C1=C(C)NC(C)=C(C(=O)OCC(C)C)C1c1ccccc1[N+](=O)[O-] (centres unmarked) [Nisoldipine, nisoldipine, reference compound]
PTAI>3SD (1N4R p-tau; [3]): * | ThS net change (1N4R p-tau; [4]): -29 | p-tau cytotox (SH-SY5Y cells): No change
